Measurements from patent publication US20250188387A1, “LOW TOXICITY SURFACTANT BOOSTER COMPOSITIONS FOR FILTRATION MEMBRANE CLEANING APPLICATIONS” (ECOLAB USA INC., priority 2023, published 2025).

What was measured:
[1] = Redeposition of ghee onto coupons; conditions: pH 11, 50° C., 1 g ghee in 600 g water, 10 minutes, FIG. 5
Method: Each coupon was new and conditioned by soaking in methyl alcohol for 30 seconds, then placed in 60° C. oven for 30 minutes. 600 g of 0 grain water was heated in a 1000 ml beaker to 50° C. The pH of the mixture was adjusted to 11 using NaOH. The chemistry was added to the solution and mixed for one minute. Additionally, 1 g of melted ghee was added to the solution and mixed for one minute. Three cleaned and weighed coupons were added using a coupon holder. After 10 minutes, the coupons were removed and dipped in DI water once. Coupons were left to dry overnight and weighed the following day. […] Therefore, after the soil is removed it is less likely to be redeposited onto the surface again.

[2] = Toxicity screening of surfactants by derived no-effect level (DNEL); conditions: derived from toxicological studies supplied by the surfactant manufacturer, with assessment factors
Text: As referred to herein, a DNEL is substance specific and is commonly used as a health risk-based threshold in toxicological risk assessments. As a point of departure for the derivation of a DNEL varying toxicological studies are used, supplied by the surfactant manufacturer. […] Depending on evaluated endpoint and different parameters of these studies certain assessment factors are applied to derivate the DNEL. Used herein are scientifically justified and publicly recognized methods (e.g. by EFSA or ECETOC) for the determination of these assessment factors.
Surfactants were screened for lower toxicity levels.

| Substance | redeposition of butterfat onto coupons [1] | DNEL (derived no-effect level) [2] |
| --- | --- | --- |
| Alkyl polyglucosides [APGs] | helps prevent a larger amount of butterfat from being deposited | – |
| Nonylphenol ethoxylate [NPE] | – | less than 1 |
